Measurements: US5856095A, “Identification of two novel mutant alleles of human thiopurine S-methyltransferase, and diagnostic uses thereof” (priority 1995, dated 1999)
Entries after “also recorded” stand apart in the source; their conditions may differ. Like-named read-outs stand apart in the source and are kept apart here.

Experiments:
[1] = patients with TPMT deficiency treated with standard dosages; cited from earlier work
TPMT719 = target: T1, TPMT719 (Homo sapiens, UniProt P51580, Y240C)
T1 sequence (P51580 1-245 Y240C): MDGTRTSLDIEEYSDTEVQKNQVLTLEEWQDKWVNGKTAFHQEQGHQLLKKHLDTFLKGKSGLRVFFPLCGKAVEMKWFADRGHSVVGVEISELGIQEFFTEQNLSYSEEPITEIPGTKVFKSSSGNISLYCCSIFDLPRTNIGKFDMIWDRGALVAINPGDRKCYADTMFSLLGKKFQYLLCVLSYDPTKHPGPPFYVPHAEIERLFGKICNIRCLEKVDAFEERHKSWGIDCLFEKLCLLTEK
Excerpt: (§1) FIGS. 9A, 9B, and 9C depict comparison of TPMT mRNA, protein, and activity levels in yeast transformed with vector alone without any insert (lane 1), vector with wild-type cDNA (lane 2), vector with cDNA containing G460A (lane 3), vector with cDNA containing A719G (lane 4), vector with cDNA containing both G460A and A719G (TPMTB) (lanes 5 and 6).
(§2) The wild type and mutant cDNA clones were used as templates for site-directed mutagenesis. PCR conditions were as described above except that annealing temperature was changed to 50° C. and 1.3 units of Pyrococcus furiosus DNA polymerase (Stratagene, La Jolla, Calif.) was used. […] In order to prepare cDNA containing either mutation found in this patient, two reverse primers were designed for further mutagenesis. […] The resultant PCR products were also ligated into the expression vector. […] Nucleotide structures of all cDNAs were confirmed by sequencing.
(§3) Yeast cells were treated with Lyticase (Sigma, St. Louis, Mo.), sedimented after washing with a buffer (pH 6.2) containing 20 mM 2-[N-morpholino]ethanesulfonic acid (MES) and 1.5M sorbitol, and resuspended with Tris-HCl buffer (pH 7.8) containing 100 KIU/Ml aprotinin and 1 mM phenylmethylsulfonyl fluoride. After sonication, the cytosolic fraction was obtained by centrifugation at 100,000 g for 60 min at 4° C. […] The level of expression was measured by Western blot analysis.
(§4) The amount of TPMT in each reaction was made the same (0.57 μg TPMT) by adjusting the amount of yeast cytosol according to TPMT protein levels detected by the Western-blot analysis.

TPMT460 = system: TPMT460
Excerpt: as §1, §2, §3, §4

TPMTA = TPMTA (Homo sapiens, UniProt P51580, A80P); details: heterologously expressed TPMTA
[2] = Hematopoietic toxicity of thiopurines in TPMT-deficient patients; assay type: in vivo, human
Excerpt: TPMT phenotype was assigned on the basis of erythrocyte TPMT activity, according to the criteria of Weinshilboum and Sladek (Weinshilboum and Sladek, Am. J. Hum. Genet. 32:651-662 (1980)).

[3] = human, in vivo
TPMTB = target: T2, TPMTB (Homo sapiens, UniProt P51580, A154T/Y240C); test: S-methylation of 6-MP catalyzed by TPMTB (G460A and A719G) expressed in yeast (kinetic parameters, activity); assay type: biochemical; details: 6MP concentrations up to 2 mM
T2 construct: the whole mutant proteins are expressed in yeast; made in house; host or cells: yeast strain 2805
T2 sequence (P51580 1-245 A154T/Y240C): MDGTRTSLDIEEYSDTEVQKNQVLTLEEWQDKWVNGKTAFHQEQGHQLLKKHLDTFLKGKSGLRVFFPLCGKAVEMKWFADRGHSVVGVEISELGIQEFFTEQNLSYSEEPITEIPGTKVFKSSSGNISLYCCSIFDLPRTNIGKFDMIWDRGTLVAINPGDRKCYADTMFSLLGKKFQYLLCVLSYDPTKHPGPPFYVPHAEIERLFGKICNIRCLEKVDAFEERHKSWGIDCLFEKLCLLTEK
Experimental: Yeast cells transformed with recombinant expression vectors or the vector without TPMT cDNA (control) were grown on galactose-containing medium for 24 hr at 30° C. Yeast cells were treated with Lyticase (Sigma, St. Louis, Mo.), sedimented after washing with a buffer (pH 6.2) containing 20 mM 2-[N-morpholino]ethanesulfonic acid (MES) and 1.5M sorbitol, and resuspended with Tris-HCl buffer (pH 7.8) containing 100 KIU/Ml aprotinin and 1 mM phenylmethylsulfonyl fluoride. After sonication, the cytosolic fraction was obtained by centrifugation at 100,000 g for 60 min at 4° C. The concentration of protein in yeast lysates was determined using the Bio-RadDC protein assay (Lowry, O. H., et al., J. Biol. Chem. 193:265-275 (1951)). The level of expression was measured by Western blot analysis.
These reaction conditions differ from that previously published (Krynetski, E. Y. et al., Mol. Pharmacol. 47:1141-1147 (1995)); i.e. incubation at 37 C instead of 21.5 C, analysis of MeMP production formation instead of substrate disappearance, and the use of higher substrate concentrations in the present study. The amount of TPMT in each reaction was made the same (0.57 μg TPMT) by adjusting the amount of yeast cytosol according to TPMT protein levels detected by the Western-blot analysis. […]

TPMT [4] = test: TPMT enzymatic activity of yeast lysates expressing wild-type or G238C mutant TPMT cDNA (Example 1); assay type: biochemical, human; details: for enzymatic activity, fold difference between wild-type and G238C mutant TPMT: expressed in yeast; for TPMT activity in yeast lysates: yeast transformed with wild-type or G238C mutant TPMT cDNA
Experimental: In all experiments on heterologous expression of TPMT, yeast transformed with the expression vector without the TPMT cDNA insert was used as a control.
Enzymatic activity of yeast lysates was assayed in a total volume of 1 ml, and formation of the S-methylated thiopurine product was determined by HPLC.

TPMT [5] = test: Intrinsic stability of recombinant TPMT proteins at 37° C. in vitro; assay type: biochemical, human; details: for time to inactivation: 0.1M Tris-HCl pH 7.5; for TPMT activity at 37° C., 0 hr: yeast lysates, 2 mM 6MP and 1 mM SAM
Experimental: Yeast cytosols expressing wild-type TPMT460, or TPMT719 protein were incubated in 0.1M Tris-HCl (pH 7.5) at 37° C. […] The assay of TPMT activity was then allowed to proceed for 15 min at 37° C., and MeMP was measured as described above. Total protein concentrations of yeast lysate in the incubation mixture were 0.09, 0.37, 0.08 mg/ml for the wild-type, TPMT460, and TPMT719, respectively, to give equal amount of TPMT in the incubation. The same assay mixture without yeast lysate served as the blank, and the background values for non-enzymatic methylation (<10%) were subtracted from all values obtained. An aliquot of sample at each time point was taken for Western blot analysis. The samples at 0° C., 0 hr served as controls for the blots with TPMT460 and TPMT719.

[6] = yeast lysates, 10 μM 6MP and 1 mM SAM (FIG. 9C)

Sc1ncnc2nc[nH]c12 [6MP, 6-mercaptopurine]
hematopoietic toxicity [1]: severe hematopoietic toxicity
intrinsic clearance (Vmax/Km) relative to wild-type (TPMT719): comparable to wild-type
catalytic activity reduced compared with wild-type, normalized to TPMT content (TPMT719; [6]): 1.4 fold
increase in Km for 6MP versus wild-type (TPMT460; substrate 6MP): 46 fold
catalytic activity reduced compared with wild-type, normalized to TPMT content (TPMT460; [6]): 9 fold
Vmax/Km ratio, fold lower than wild-type TPMT (TPMTA): 5 fold
hematopoietic toxicity ([2]; TPMT-deficient child with acute lymphoblastic leukemia, oral 75 mg/m2 per day): severe hematopoietic toxicity
hematopoietic toxicity ([2]; TPMT-deficient child with acute lymphocytic leukemia, 50 mg/m2/day): severe hematopoietic toxicity
erythrocyte concentration of TGNs, fold higher than the population median [3]: > 15 fold
erythrocyte concentration of TGNs, population median [3]: 280 pmol/ml pRBC
TPMT activity (S-methylation of 6MP) (TPMTB): no activity of TPMTB could be detected; also recorded: undetectable

C[S+](CC[C@H](N)C(=O)O)C[C@H]1O[C@@H](n2cnc3c(N)ncnc32)[C@H](O)[C@@H]1O (some centres unmarked) [SAM]
increase in Km for co-substrate SAM versus wild-type (TPMT460; co-substrate SAM): 200 fold

Cn1cnc([N+](=O)[O-])c1Sc1ncnc2nc[nH]c12 [azathioprine]
hematopoietic toxicity [1]: severe hematopoietic toxicity

B1: TPMTA: mutant TPMT with G238C point mutation, Ala80→Pro, expressed in yeast (protein)
chain: MDGTRTSLDIEEYSDTEVQKNQVLTLEEWQDKWVNGKTAFHQEQGHQLLKKHLDTFLKGKSGLRVFFPLCGKAVEMKWFPDRGHSVVGVEISELGIQEFFTEQNLSYSEEPITEIPGTKVFKSSSGNISLYCCSIFDLPRTNIGKFDMIWDRGALVAINPGDRKCYADTMFSLLGKKFQYLLCVLSYDPTKHPGPPFYVPHAEIERLFGKICNIRCLEKVDAFEERHKSWGIDCLFEKLYLLTEK
enzymatic activity, fold difference between wild-type and G238C mutant TPMT (TPMT [4]): approximately 100 fold
enzymatic activity, fold difference between wild-type and G238C mutant TPMT (TPMT [4]; listed as mutant TPMT): ≈ 100 fold
TPMT activity in yeast lysates (TPMT [4]): < 1.0 nmol/hr per mg of protein

B2: TPMT719: TPMT from cDNA containing only A719G (Tyr240→Cys), expressed in yeast (protein)
chain: MDGTRTSLDIEEYSDTEVQKNQVLTLEEWQDKWVNGKTAFHQEQGHQLLKKHLDTFLKGKSGLRVFFPLCGKAVEMKWFADRGHSVVGVEISELGIQEFFTEQNLSYSEEPITEIPGTKVFKSSSGNISLYCCSIFDLPRTNIGKFDMIWDRGALVAINPGDRKCYADTMFSLLGKKFQYLLCVLSYDPTKHPGPPFYVPHAEIERLFGKICNIRCLEKVDAFEERHKSWGIDCLFEKLCLLTEK
time to inactivation (TPMT [5]; 37° C.): ≤ 4 h
TPMT activity at 37° C., 0 hr (TPMT [5]): 88.6 nmol/min/mg TPMT

B3: TPMT460: TPMT from cDNA containing only G460A (Ala154→Thr), expressed in yeast (protein)
chain: MDGTRTSLDIEEYSDTEVQKNQVLTLEEWQDKWVNGKTAFHQEQGHQLLKKHLDTFLKGKSGLRVFFPLCGKAVEMKWFADRGHSVVGVEISELGIQEFFTEQNLSYSEEPITEIPGTKVFKSSSGNISLYCCSIFDLPRTNIGKFDMIWDRGTLVAINPGDRKCYADTMFSLLGKKFQYLLCVLSYDPTKHPGPPFYVPHAEIERLFGKICNIRCLEKVDAFEERHKSWGIDCLFEKLYLLTEK
time to inactivation (TPMT [5]; 37° C.): ≤ 4 h
TPMT activity at 37° C., 0 hr (TPMT [5]): 142.5 nmol/min/mg TPMT

B4: wild-type TPMT: wild-type human thiopurine S-methyltransferase expressed in yeast (protein)
chain: MDGTRTSLDIEEYSDTEVQKNQVLTLEEWQDKWVNGKTAFHQEQGHQLLKKHLDTFLKGKSGLRVFFPLCGKAVEMKWFADRGHSVVGVEISELGIQEFFTEQNLSYSEEPITEIPGTKVFKSSSGNISLYCCSIFDLPRTNIGKFDMIWDRGALVAINPGDRKCYADTMFSLLGKKFQYLLCVLSYDPTKHPGPPFYVPHAEIERLFGKICNIRCLEKVDAFEERHKSWGIDCLFEKLYLLTEK
TPMT activity in yeast lysates (TPMT [4]): 113-123 nmol/hr per mg of protein
TPMT activity remaining (TPMT [5]; 37° C., 12 hr): 30%
TPMT activity at 37° C., 0 hr (TPMT [5]): 83.7 nmol/min/mg TPMT
